# Laboratory results reported in paper PMC8486872, “A rational blueprint for the design of chemically-controlled protein switches” (Nature Communications, 2021).
# Values joined by “and” are separate entries in the source; they are usually repeats but may differ in a detail not shown here. Equal values may be shown once.
# Legend:
# [1] = system: JAK/STAT pathway SEAP expression in HEK293T cells; assay: CDH-GEMS receptor signaling SEAP assay; assay type: cell-based; conditions: Suppl Fig 9b
# Description: To test modularity and performance robustness of the CDHs in different molecular contexts, we inserted these modules in the generalizable extracellular molecule sensor (GEMS) receptor signaling pathway platform[24] and built CDH-GEMS. In these constructs the CDHs are localized extracellularly and function as ectodomain switches, fused to the backbone of the erythropoietin receptor, and an intracellular interleukin 6 receptor domain which activates the JAK/STAT pathway (Fig. 3d). The CDH-GEMS trigger the activation of the JAK/STAT pathway by the dimerization of their subunits. Thus, the drugs are expected to split the CDHs inactivating the signaling pathway as assessed by the expression of the reporter protein SEAP. All three CDH-GEMS were responsive to their respective drugs dynamic response range varied from approximately 6-fold (CDH-2) to 8-fold (CDH-1,3) (Fig. 3e). […] The CDH-GEMS were also reversible upon intermittent drug treatment (Supplementary Fig. 7h, i). Despite that comparisons between CDH-TFs and CDH-GEMS are not straightforward due to differences in the reporter signaling pathways, we observe a general trend for the CDHs to present lower IC50s when used as extracellular modules, which is consistent with overcoming drug permeability issues in cells.
# HEK293T cells were maintained in DMEM medium with 10% FBS (Gibco) and Pen/Strep (Thermo Fisher). Cells were maintained and split every two days at around 80% confluence. HEK293T cells were seeded 24 h before transfection, and transfected with the lipofectamine 3000 kit (Thermo Fisher). Plasmids were cotransfected according to the Table S7. For the drug OFF-switch experiments, drugs were added 12 h post transfection and incubated with cells for 24 h before the SEAP detection assay.
# Secreted alkaline phosphatase (SEAP) activity (U/L) in cell culture supernatants was quantified by kinetic measurements at 405 nm (1 min/measurement for 30 cycles) of absorbance increase due to phosphatase-mediated hydrolysis of para-nitrophenyl phosphate (pNPP).
# Apparent IC50s of SPR drug competition assay were calculated using three-parameter nonlinear regression in GraphPad Prism (Version 8.3.0). Representative data of cellular assays are presented as individual values and mean values (bars). n = 3 refers to biological replicates. All IC50/EC50 values of cellular assays (CDH-TF, CDH-GEMS, AIR-TF and AIR-GEMS) reported were calculated using four-parameter nonlinear regression ± s.d.
# Supplementary Figure 9: Comparison of ON-state reporter expression of weak affinity variants of LD3 in CDH-1/2-GEMS platform. a) ON-state expression of CDH-1-GEMS with LD3 and LD3_v3. b) Drug dose-dependent responses in engineered cells determined for the CDH-1-GEMS with LD3 and LD3_v3. c) ON-state expression of CDH-2-GEMS with LD3 and LD3_v3. d) Drug dose-dependent responses in engineered cells determined for the CDH-2-GEMS with LD3 and LD3_v3. In the data shown HEK293T cells were […]
# quantification was done 24 hours after drug treatment. a, c) The bar charts show the mean ± s.d. of n = 3 biologically independent samples overlaid with a scatter dot plot of the original data points. b, d) Each […]
# parameter nonlinear regression.
# (1 picture or pasted object on this page, not shown here)
# [2] = system: SEAP expression in HEK293T cells; assay: MISO designer cells (CDH-1 + CDH-3 dual switches); assay type: cell-based; design: SEAP / Bottom (best-fit value) / Top (best-fit value) / Span (best-fit value): unit not given here; conditions: for logIC50 (best-fit value): drug in nM; for SEAP, Drug-1 turn OFF CDH-1-TF: Fig S13f; for SEAP, Drug-1 turn OFF CDH-1-GEMS: Fig S13g, representative data
# Description: Fig. 5 Orthogonal chemical switches enable implementation of multi-input multi-output control modes in mammalian cells. a Scheme of multi-inputs multi-outputs (MIMO) designer cells where two drugs control two different outputs. b, c Cells were co-transfected with AIR-1/2-GEMS and CDH-3-TF regulate SEAP and Luciferase expression, respectively. […] AIR-1/2-GEMS coupled with SEAP expression circuits were co-transfected with CDH-1/2-TF circuits which control the Luciferase production. Respective drug concentrations ranged from 0.001 nM to 1 µM. […]
# We then engineered MISO cells (Fig. 5d) with CDH-1-TF and CDH-3-TF dual switches (Fig. 5e) that encode OFF behaviors controlled by Drug-1 and Drug-3. […] This output behavior is distinct from the typical SISO systems which only show two persistent states (high, low) (Fig. 2c, f). […] This type of output in biological systems could be utilized to produce graded levels of responses that are robust to minor oscillations in drug concentrations, and could be used to dissect fundamental biological processes but also to provide persistent response levels in translational applications.
# 1-TF and CDH-3-TF circuits. Drug-1 concentrations ranged from 0.001 nM to 1 µM (left) and 1 µM Drug-1 with serial diluted Drug-3 from 0.001 nM to 1 µM (right). g) Quantification of SEAP activity controlled […]
# by CDH-1-GEMS and CDH-3-GEMS circuits. […]
# Luciferase production (l). b-k) Each data point represents the mean of n = 3 biological replicates, and the dose-dependent curve were fitted using four-parameter nonlinear regression.
# [3] = Fig5e SEAP, CDH-1-TF, + 1 µM Drug-3, four-parameter fit
# [4] = Fig5f SEAP, CDH-1-GEMS, + 1 µM Drug-3, three-parameter fit
smiles,measurement,setting,value
"CN(C)CC#Cc1ccc(OCCCc2sc(N3CCc4cccc(C(=O)Nc5nc6ccccc6s5)c4C3)nc2C(=O)O)c(F)c1 [Drug-1, A-1155463]",SEAP %,"[1]; BclxL:LD3, 0.001 nM",18.0122% and 17.4443% and 16.8298%
same,SEAP %,"[1]; BclxL:LD3, 0.005 nM",16.6899% and 17.1312% and 17.1781%
same,SEAP %,"[1]; BclxL:LD3, 0.01 nM",17.4444% and 15.5469% and 16.1047%
same,SEAP %,"[1]; BclxL:LD3, 0.05 nM",15.1537% and 15.6285% and 14.5618%
same,SEAP %,"[1]; BclxL:LD3, 0.1 nM",14.6667% and 14.1653% and 14.4377%
same,SEAP %,"[1]; BclxL:LD3, 0.5 nM",13.4918% and 13.7573% and 13.7645%
same,SEAP %,"[1]; BclxL:LD3, 1 nM",11.4623% and 11.7897% and 11.4884%
same,SEAP %,"[1]; BclxL:LD3, 5 nM",7.87% and 8.2239% and 7.705%
same,SEAP %,"[1]; BclxL:LD3, 10 nM",5.487% and 5.0968% and 5.0693%
same,SEAP %,"[1]; BclxL:LD3, 50 nM",4.04% and 4.459% and 3.462%
same,SEAP %,"[1]; BclxL:LD3, 100 nM",4.1212% and 3.83% and 3.424%
same,SEAP %,"[1]; BclxL:LD3, 500 nM",3.2684% and 3.043% and 3.776%
same,SEAP %,"[1]; BclxL:LD3, 1000 nM",3.47% and 3.522% and 3.463%
same,SEAP %,"[1]; BclxL:LD3_v3, 0.001 nM",16.3076% and 17.437% and 16.859%
same,SEAP %,"[1]; BclxL:LD3_v3, 0.005 nM",14.9031% and 15.6748% and 15.9103%
same,SEAP %,"[1]; BclxL:LD3_v3, 0.01 nM",13.8744% and 14.7636% and 15.1685%
same,SEAP %,"[1]; BclxL:LD3_v3, 0.05 nM",12.8457% and 12.494% and 13.0699%
same,SEAP %,"[1]; BclxL:LD3_v3, 0.1 nM",9.936% and 9.732% and 9.834%
same,SEAP %,"[1]; BclxL:LD3_v3, 0.5 nM",8.327% and 7.455% and 7.64%
same,SEAP %,"[1]; BclxL:LD3_v3, 1 nM",9.561% and 8.788% and 8.726%
same,SEAP %,"[1]; BclxL:LD3_v3, 5 nM",4.582% and 4.8104% and 5.942%
same,SEAP %,"[1]; BclxL:LD3_v3, 10 nM",4.563% and 3.586% and 4.47%
same,SEAP %,"[1]; BclxL:LD3_v3, 50 nM",5.174% and 5.025% and 4.8595%
same,SEAP %,"[1]; BclxL:LD3_v3, 100 nM",4.401% and 4.122% and 4.248%
same,SEAP %,"[1]; BclxL:LD3_v3, 500 nM",4.318% and 3.762% and 3.577%
same,SEAP %,"[1]; BclxL:LD3_v3, 1000 nM",4.822% and 4.215% and 3.859%
same,Bottom (best-fit value),[2]; [3],10.05
same,HillSlope (best-fit value),[2]; [3],-1.155
same,Span (best-fit value),[2]; [3],11.2
same,Top (best-fit value),[2]; [3],21.26
same,logIC50 (best-fit value),[2]; [3],0.9359
same,SEAP,"[2]; Fig5e, turn OFF CDH-1-TF, 0.001 nM + 1 µM Drug-3",16.8327 and 22.6453 and 20.005
same,SEAP,"[2]; Fig5e, turn OFF CDH-1-TF, 0.01 nM + 1 µM Drug-3",20.9002 and 22.3965 and 21.4625
same,SEAP,"[2]; Fig5e, turn OFF CDH-1-TF, 0.1 nM + 1 µM Drug-3",21.6157 and 22.7521 and 21.3586
same,SEAP,"[2]; Fig5e, turn OFF CDH-1-TF, 1 nM + 1 µM Drug-3",21.4038 and 20.3272 and 21.0988
same,SEAP,"[2]; Fig5e, turn OFF CDH-1-TF, 10 nM + 1 µM Drug-3",13.4848 and 15.392 and 15.5387
same,SEAP,"[2]; Fig5e, turn OFF CDH-1-TF, 100 nM + 1 µM Drug-3",11.183 and 12.1962 and 11.7139
same,SEAP,"[2]; Fig5e, turn OFF CDH-1-TF, 1000 nM + 1 µM Drug-3",9.72 and 8.497 and 9.661
same,Bottom (best-fit value),[2]; [4],12.41
same,Span (best-fit value),[2]; [4],42.02
same,Top (best-fit value),[2]; [4],54.44
same,logIC50 (best-fit value),[2]; [4],0.8832
same,SEAP,"[2]; Fig5f, turn OFF CDH-1-GEMS, 0.001 nM + 1 µM Drug-3",55.6364 and 50.5517 and 48.8723
same,SEAP,"[2]; Fig5f, turn OFF CDH-1-GEMS, 0.01 nM + 1 µM Drug-3",61.2598 and 59.0443 and 45.7788
same,SEAP,"[2]; Fig5f, turn OFF CDH-1-GEMS, 0.1 nM + 1 µM Drug-3",46.4102 and 62.6516 and 50.3302
same,SEAP,"[2]; Fig5f, turn OFF CDH-1-GEMS, 1 nM + 1 µM Drug-3",57.5516 and 40.155 and 62.0361
same,SEAP,"[2]; Fig5f, turn OFF CDH-1-GEMS, 10 nM + 1 µM Drug-3",22.2271 and 39.6828 and 23.9896
same,SEAP,"[2]; Fig5f, turn OFF CDH-1-GEMS, 100 nM + 1 µM Drug-3",14.7907 and 24.2066 and 13.0137
same,SEAP,"[2]; Fig5f, turn OFF CDH-1-GEMS, 1000 nM + 1 µM Drug-3",8.999 and 11.1728 and 14.7089
same,"SEAP, Drug-1 turn OFF CDH-1-TF",[2]; Drug-1 0.001 nM,37.8605 U/L and 37.6407 U/L and 37.2767 U/L
same,"SEAP, Drug-1 turn OFF CDH-1-TF",[2]; Drug-1 0.01 nM,46.3191 U/L and 36.6964 U/L and 37.3836 U/L
same,"SEAP, Drug-1 turn OFF CDH-1-TF",[2]; Drug-1 0.1 nM,40.0956 U/L and 39.4221 U/L and 42.0031 U/L
same,"SEAP, Drug-1 turn OFF CDH-1-TF",[2]; Drug-1 1 nM,42.0045 U/L and 40.1385 U/L and 32.8382 U/L
same,"SEAP, Drug-1 turn OFF CDH-1-TF",[2]; Drug-1 10 nM,31.0901 U/L and 30.8325 U/L and 26.6542 U/L
same,"SEAP, Drug-1 turn OFF CDH-1-TF",[2]; Drug-1 100 nM,22.4541 U/L and 19.9215 U/L and 18.0282 U/L
same,"SEAP, Drug-1 turn OFF CDH-1-TF",[2]; Drug-1 1000 nM,23.3552 U/L and 18.7039 U/L and 14.93 U/L
same,"SEAP, Drug-1 turn OFF CDH-1-GEMS",[2]; Drug-1 0.001 nM,63.1346 U/L and 76.9207 U/L and 59.8899 U/L
same,"SEAP, Drug-1 turn OFF CDH-1-GEMS",[2]; Drug-1 0.01 nM,62.4115 U/L and 58.8113 U/L and 53.5466 U/L
same,"SEAP, Drug-1 turn OFF CDH-1-GEMS",[2]; Drug-1 0.1 nM,64.3309 U/L and 62.8524 U/L and 59.3961 U/L
same,"SEAP, Drug-1 turn OFF CDH-1-GEMS",[2]; Drug-1 1 nM,47.8019 U/L and 47.3132 U/L and 39.8687 U/L
same,"SEAP, Drug-1 turn OFF CDH-1-GEMS",[2]; Drug-1 10 nM,42.6016 U/L and 46.6627 U/L and 42.2581 U/L
same,"SEAP, Drug-1 turn OFF CDH-1-GEMS",[2]; Drug-1 100 nM,43.3282 U/L and 43.4567 U/L and 33.8379 U/L
same,"SEAP, Drug-1 turn OFF CDH-1-GEMS",[2]; Drug-1 1000 nM,36.4444 U/L and 23.5312 U/L and 44.7329 U/L
